# Entries after “also recorded” stand apart in the source; their conditions may differ.
# Assays:
# dorsal column (DC) axons = assay: T8 dorsal column (DC) crush model of spinal cord injury: axon regeneration, electrophysiology, sensory and locomotor tests; assay type: in vivo, rat; conditions: for DC axon regeneration: GAP43+ axons rostral to/beyond the lesion site
# Procedure: DC crush injury model. Rats were injected subcutaneously with 0.05 ml Buprenorphine to provide analgesia prior to surgery and anaesthetised using 5% of Isoflurane in 1.8 ml/l of O2 with body temperature and heart rate monitored throughout surgery.
# Chk2 inhibition studies in the DC crush injury model. […] Chk1i (LY2603618) was used at equimolar concentrations for each experiment. Rats were killed in a rising concentration of CO2 at either 28 d for immunohistochemistry and western blot analyses or 6 weeks for electrophysiology and functional tests.
# Sham treated animals (partial laminectomy but no DC injury) were also included as additional controls. At 4 weeks after DC injury and treatment, ipsilateral L4/L5 DRG pairs were harvested, total RNA extracted using Trizol reagent as described above and knock down of Chk1 and Chk2 mRNA knockdown using quantitative qRT-PCR, as described above. Contralateral L4/L5 DRG pairs were treated the same as above and used as controls. […] This included western blot to determine pChk1 and pChk2 levels after shChk2 treatment. For these experiments, animals were randomly assigned to DC+shNull and DC+shChk2 groups each comprising n=6 rats and repeated on 3 independent occasions (total n=18 rats/group). […] Animals were allowed to survive for 6 weeks with functional testing (tape sensing+removal and ladder crossing tests) performed pre- and post-DC injury as described below. Electrophysiology was performed on the same set of animals at 6 weeks after DC injury and treatment as described below.
# Quantification of DC axon regeneration. […] Briefly, the number of intersections of GAP43^+ fibers were counted through a dorsoventral orientated line in reconstructed serial parasagittal sections of the cord (serial 50μm-thick sections ˜70-80 sections/animal; n=10 rats/treatment)). Axon number was then represented as % of fibers counted at 4 mm above the lesion, where the DC was intact.
# Electrophysiology. […] Briefly, with the experimenter masked to the treatment conditions, silver wire electrodes applied single-current pulses (0.05 ms) through a stimulus isolation unit in increments (0.2, 0.3, 0.6, 0.8, and 1.2 mA) at L1-L2 and compound action potentials (CAP) were recorded at C4-C5 along the surface of the midline spinal cord. Spike 2 software was then used to calculate CAP amplitudes between the negative deflection after the stimulus artifact and the next peak of the wave. CAP area was calculated by rectifying the negative CAP component (full-wave rectification) and measuring its area. At the different stimulation intensities. […] Representative CAP traces are processed output data from Spike 2 software.
# Functional tests. […] Briefly, animals (n=6 rats/group, 3 independent repeats; total n=18/group) received training to master traversing the horizontal ladder for 1w before functional testing. Baseline parameters for all functional tests were established 2-3 d before injury. Animals were then tested 2 d after DC lesion+treatment and then weekly for 6 weeks. Experiments were performed by 2 observers (treatment conditions were masked) in the same order, the same time of day and each test performed for 3 individual trials. Horizontal ladder test: This tests the animals locomotor function and is performed on a 0.9-meter-long horizontal ladder with a diameter of 15.5 cm and randomly adjusted rungs with variable gaps of 3.5-5.0 cm. The total number of steps taken to cross the ladder and the left and right rear paw slips being were recorded and the mean error rate was then calculated by dividing the number of slips by the total number of steps taken.
# RGC [1] = assay: Rat retinal cultures: RGC survival and neurite outgrowth; assay type: cell-based; conditions: 1-50 μM
# Procedure: (§1) Rat DRGN and retinal cultures. […] Cells were cultured for 4 days in a humidified chamber at 37° C. and 5% CO2 before being subjected to quantitative RT-PCR or immunocytochemistry, as described below.
# RGC [2] = assay: Optic neuritis model: RGC survival and RNFL thickness; assay type: in vivo, mice
# Procedure: Induction of optic neuritis. […] Animals were intraperitoneally injected with 150 ng Bordetella pertussis toxin on day 0 and 2. Animals were monitored daily and assessed for the development of EAE. At the end of the experiment, animals were then killed by CO2 overdose.
# Measurement of RNFL thinning using optical coherence tomography (OCT). A Spectralis HRA+OCT machine was used to capture OCT images. Examinations were recorded in both right (oculus dextrus, OD) and left eyes (oculus sinister, OS) of each animal at day 0 and day 21 after immunisation. […] A RNFL single exam using the automatic real time (ART) mode (allows averaging of 100 recordings) was produced for each mouse eye, which automatically measured RNFL thickness (μm) in a 30° circle surrounding the optic nerve head.
# RGC [3] = conditions: 24 days after ONC
# RGC [4] = assay: Glaucoma model (intracameral TGFβ): RGC survival; assay type: in vivo, rat; conditions: 30 days after the induction of glaucoma
# Procedure: Induction of glaucoma. […] Intraocular pressure was measured using an iCare
# Tonolab rebound tonometer (Icare, Helsinki, Finland).
# [5] = system: dorsal root ganglion neuron (DRGN) cultures; assay: Primary adult rat DRGN cultures: survival and neurite outgrowth; assay type: cell-based
# Procedure: as §1
# [6] = Chk2i: 3 weeks after injury, others over the whole 6 weeks
improvement in RGC function measured by flash electroretinography (ERG) amplitude (RGC [3]),Compound,mean CAP area at different stimulation intensities (dorsal column (DC) axons; 6 weeks after DC injury),"negative CAP amplitudes (dorsal column (DC) axons; 6 weeks after DC injury, all stimulation intensities)",ladder crossing test (locomotor function) outcome (dorsal column (DC) axons; [6]),tape sensing/removal test (sensory function) outcome (dorsal column (DC) axons; [6]),DC axon regeneration (dorsal column (DC) axons),effect on RGC survival (RGC [1]),protection of RGC from death (RGC [2]; 21 days after induction),protection against retinal nerve fibre layer thinning (RGC [2]; OCT at day 21),effect on ERG traces (RGC [3]),protection of RGC from death (RGC [4]),effect on DRGN survival ([5]; 1-50 μM),neurite outgrowth in DRGN ([5]; 4 days in culture),"DRGN survival ([5]; 4 days in culture, NBA-treated controls 40%)",% DRGN with neurites ([5]; 4 days in culture),"mean neurite length ([5]; 4 days in culture, controls 12 μm)"
–,Cc1cnc(NC(=O)Nc2cc(Br)c(C)cc2OC[C@@H]2CNCCO2)cn1 [Chk1i],significantly attenuated,significantly attenuated,significant deficit remains; also recorded: deficit remaining,significant deficit remained,no axon regeneration beyond the lesion site,no effect,no effect,no effect,no effect,no effect,no effect,no effect,no effect,–,–
> 83%,COc1cc2nc(-c3cc(F)ccc3O)nc(N[C@@H]3CNC[C@H]3C(C)(C)O)c2cc1OC [Chk2i],–,–,–,–,significant DC axon regeneration,–,–,–,–,–,–,–,–,–,–
–,"FGF2: positive control for DRGN cultures, pre-optimised 10 ng/ml",–,–,–,–,–,–,–,–,–,–,–,–,–,42%,180 μm

# — US20230390282A1, “TREATMENT OF EYE CONDITIONS” (The University of Birmingham, priority 2020, published 2023)
